From PubChem BioAssay (NCI)
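Each compound was tested at five concentrations against cells in 96-well plates for 48 hours. Abbreviation: GI50, concentration required for 50% inhibition of growth. TGI: concentration producing complete growth inhibition.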

Columns and labels:
Assay in all cases: NCI anticancer screen, dose series, 48 h
786-0 renal = test system: 786-0 renal
A498 renal = test system: A498 renal
ACHN renal = test system: ACHN renal
BT-549 breast = test system: BT-549 breast
CCRF-CEM leukemia = test system: CCRF-CEM leukemia
COLO 205 colon = test system: COLO 205 colon
DU-145 prostate = test system: DU-145 prostate
EKVX NSCLC = test system: EKVX NSCLC
HCC-2998 colon = test system: HCC-2998 colon
HCT-116 colon = test system: HCT-116 colon
HCT-15 colon = test system: HCT-15 colon
HL-60(TB) leukemia = test system: HL-60(TB) leukemia
HOP-62 NSCLC = test system: HOP-62 NSCLC
HOP-92 NSCLC = test system: HOP-92 NSCLC
HS 578T breast = test system: HS 578T breast
HT29 colon = test system: HT29 colon
IGROV1 ovarian = test system: IGROV1 ovarian
K-562 leukemia = test system: K-562 leukemia
LOX IMVI melanoma = test system: LOX IMVI melanoma
M14 melanoma = test system: M14 melanoma
MDA-MB-231 breast = test system: MDA-MB-231 breast
MOLT-4 leukemia = test system: MOLT-4 leukemia
NCI-H226 lung = test system: NCI-H226 lung
NCI-H460 lung = test system: NCI-H460 lung
OVCAR-3 ovarian = test system: OVCAR-3 ovarian
OVCAR-4 ovarian = test system: OVCAR-4 ovarian
OVCAR-5 ovarian = test system: OVCAR-5 ovarian
OVCAR-8 ovarian = test system: OVCAR-8 ovarian
PC-3 prostate = test system: PC-3 prostate
RXF 393 renal = test system: RXF 393 renal
SF-268 CNS = test system: SF-268 CNS
SF-295 CNS = test system: SF-295 CNS
SF-539 CNS = test system: SF-539 CNS
SK-MEL-2 melanoma = test system: SK-MEL-2 melanoma
SK-MEL-5 melanoma = test system: SK-MEL-5 melanoma
SK-OV-3 ovarian = test system: SK-OV-3 ovarian
SN12C renal = test system: SN12C renal
SNB-19 CNS = test system: SNB-19 CNS
SNB-75 CNS = test system: SNB-75 CNS
SR leukemia = test system: SR leukemia
TK-10 renal = test system: TK-10 renal
U251 CNS = test system: U251 CNS
UACC-62 melanoma = test system: UACC-62 melanoma
MALME-3M melanoma = test system: MALME-3M melanoma
UO-31 renal = test system: UO-31 renal

O=C(CCCCC(=O)N/N=C\c1ccccc1O)N/N=C\c1ccccc1O
GI50 (786-0 renal): 5.13 µM
TGI (786-0 renal): > 100 µM
GI50 (A498 renal): > 100 µM
TGI (A498 renal): > 100 µM
GI50 (ACHN renal): 3.53 µM
TGI (ACHN renal): > 100 µM
GI50 (BT-549 breast): 32 µM
TGI (BT-549 breast): > 100 µM
GI50 (CCRF-CEM leukemia): 1.29 µM
TGI (CCRF-CEM leukemia): > 100 µM
GI50 (COLO 205 colon): 3.67 µM
TGI (COLO 205 colon): > 100 µM
GI50 (DU-145 prostate): 5.22 µM
TGI (DU-145 prostate): > 100 µM
GI50 (EKVX NSCLC): 7.75 µM
TGI (EKVX NSCLC): > 100 µM
GI50 (HCC-2998 colon): 3.87 µM
TGI (HCC-2998 colon): > 100 µM
GI50 (HCT-116 colon): 3.69 µM
TGI (HCT-116 colon): > 100 µM
GI50 (HCT-15 colon): 2.02 µM
TGI (HCT-15 colon): > 100 µM
GI50 (HL-60(TB) leukemia): 3.07 µM
TGI (HL-60(TB) leukemia): > 100 µM
GI50 (HOP-62 NSCLC): 4.12 µM
TGI (HOP-62 NSCLC): 71.8 µM
GI50 (HOP-92 NSCLC): 11.3 µM
TGI (HOP-92 NSCLC): > 100 µM
GI50 (HS 578T breast): 15.2 µM
TGI (HS 578T breast): > 100 µM
GI50 (HT29 colon): > 100 µM
TGI (HT29 colon): > 100 µM
GI50 (IGROV1 ovarian): 3.49 µM
TGI (IGROV1 ovarian): > 100 µM
GI50 (K-562 leukemia): 3.92 µM
TGI (K-562 leukemia): > 100 µM
GI50 (LOX IMVI melanoma): 2.3 µM
TGI (LOX IMVI melanoma): > 100 µM
GI50 (M14 melanoma): 3.39 µM
TGI (M14 melanoma): > 100 µM
GI50 (MDA-MB-231 breast): 1.9 µM
TGI (MDA-MB-231 breast): 57.5 µM
GI50 (MOLT-4 leukemia): 3.01 µM
TGI (MOLT-4 leukemia): > 100 µM
GI50 (NCI-H226 lung): 3.12 µM
TGI (NCI-H226 lung): > 100 µM
GI50 (NCI-H460 lung): 3.14 µM
TGI (NCI-H460 lung): > 100 µM
GI50 (OVCAR-3 ovarian): 3.87 µM
TGI (OVCAR-3 ovarian): > 100 µM
GI50 (OVCAR-4 ovarian): 1.73 µM
TGI (OVCAR-4 ovarian): > 100 µM
GI50 (OVCAR-5 ovarian): > 100 µM
TGI (OVCAR-5 ovarian): > 100 µM
GI50 (OVCAR-8 ovarian): 2.6 µM
TGI (OVCAR-8 ovarian): > 100 µM
GI50 (PC-3 prostate): 5.65 µM
TGI (PC-3 prostate): > 100 µM
GI50 (RXF 393 renal): 3.76 µM
TGI (RXF 393 renal): > 100 µM
GI50 (SF-268 CNS): 1.72 µM
TGI (SF-268 CNS): > 100 µM
GI50 (SF-295 CNS): 1.98 µM
TGI (SF-295 CNS): 6.55 µM
GI50 (SF-539 CNS): 3.66 µM
TGI (SF-539 CNS): > 100 µM
GI50 (SK-MEL-2 melanoma): 6.66 µM
TGI (SK-MEL-2 melanoma): > 100 µM
GI50 (SK-MEL-5 melanoma): 3.22 µM
TGI (SK-MEL-5 melanoma): > 100 µM
GI50 (SK-OV-3 ovarian): 5.63 µM
TGI (SK-OV-3 ovarian): > 100 µM
GI50 (SN12C renal): 4.5 µM
TGI (SN12C renal): > 100 µM
GI50 (SNB-19 CNS): 5.88 µM
TGI (SNB-19 CNS): > 100 µM
GI50 (SNB-75 CNS): 3.39 µM
TGI (SNB-75 CNS): 20.5 µM
GI50 (SR leukemia): 2.84 µM
TGI (SR leukemia): > 100 µM
GI50 (TK-10 renal): 6.4 µM
TGI (TK-10 renal): > 100 µM
GI50 (U251 CNS): 3.09 µM
TGI (U251 CNS): > 100 µM
GI50 (UACC-62 melanoma): 2.5 µM
TGI (UACC-62 melanoma): > 100 µM

N=C(N)c1ccc(-c2ccc(-c3ccc(Cl)cc3Cl)s2)cc1
GI50 (ACHN renal): 1.7 µM
TGI (ACHN renal): 3.07 µM
GI50 (BT-549 breast): 2.18 µM
TGI (BT-549 breast): 6.62 µM
GI50 (DU-145 prostate): 1.79 µM
TGI (DU-145 prostate): 3.19 µM
GI50 (HL-60(TB) leukemia): 1.97 µM
TGI (HL-60(TB) leukemia): 4.49 µM
GI50 (HOP-92 NSCLC): 1.58 µM
TGI (HOP-92 NSCLC): 3.17 µM
GI50 (MALME-3M melanoma): 1.74 µM
TGI (MALME-3M melanoma): 3.29 µM
GI50 (OVCAR-5 ovarian): 1.79 µM
TGI (OVCAR-5 ovarian): 3.29 µM
GI50 (SF-295 CNS): 1.77 µM
TGI (SF-295 CNS): 3.19 µM
GI50 (UACC-62 melanoma): 1.73 µM
TGI (UACC-62 melanoma): 3.19 µM
GI50 (UO-31 renal): 1.58 µM
TGI (UO-31 renal): 3 µM
